The source of these data is patent publication US20220072165A1, “RADIODRUG FOR DIAGNOSTIC/THERAPEUTIC USE IN NUCLEAR MEDICINE AND RADIO-GUIDED MEDICINE” (UNIVERSITÀ DEGLI STUDI DI ROMA "LA SAPIENZA", priority 2019, published 2022).

Data set [1] deals with T1, norepinephrine transporter (NET) (Homo sapiens, UniProt P23975).
T1 construct: human neuroblastoma cells SK-N-SH, which are known to express the transporter NET in large quantity; host or cells: SK-N-SH human neuroblastoma cells
As to the kind of experiment: competition with ^3H-NE for uptake by SK-N-SH cells. The data set is classed as cell-based. The note with it: for inhibition of the uptake/internalization of ^3H-NE (competition with ^3H-NE): 1 hour, tested up to 100 μM; for substrate of NET compared with MIBG: competition with ^3H-NE. From the text: The ability of the ^89Y-DOTA-BG chelate (1a, MC4324) (non-radioactive analogue of the compound of Formula II, 1 or MC4324) to act as substrate of NET has been evaluated in competition experiments with the tritiated endogenous substrate ^3H-NE for the uptake by the human neuroblastoma cells SK-N-SH, which are known to express the transporter NET in large quantity. […] This provides the ability to prepare radio-marked versions of the chelate of Formula II (or MC4324) with an even low specific activity, because the absence of competition for NET between the chelate (MC4324) and the free binder 9 (MC4325) doesn't compromise the bonding ability to NET of the chelate (compound of Formula II, MC4324) also in the presence of an excess of free binder 9 (MC4325).
FIG. 3 depicts the competition of the ^89Y-DOTA-BG chelate (1a, MC4324) (non-radioactive analogue of the compound of Formula II, 1 or MC4324) and of free binder 9 (MC4325) with ^3H-NE (50 nM, 1 hour incubation, T=37° C.) for the uptake by the SK-N-SH cells. ^1H-NE a 20 μM and MIBG @ 2 μM have been used as positive controls.
^3H-NE has been purchased from Perkin Elmer. To measure the initial cell uptake speeds of ^3H-NE, the cells have been grown for 16 hours in the presence of serum only, then incubated with binder medium (EMEM containing 0.2% BSA and 20 mM Hepes, pH 7.5) for 10 minutes by heating in a water bath at 37° C. The bond has been initiated by adding 0.5 ml per well of 50 nM ^3H-NE to the binder medium for […], the plates have then been placed on ice and washed three times with frozen PBS. Thus, the cell monolayers have been dried and lysed with […]. The cpm (“counts” per minute) have been determined separately in the different wells in triple for each time. By cpm is meant “counts” or “hits” per minute, i.e. the nuclear disintegrations that occur in one minute. These disintegrations come from inside the cells after these have been, following the order below: 1) incubated with ^3H-NE, 2) washed with PBS to eliminate ^3H-NE remained outside the cells, 3) lysed for better detecting the radioactivity due to the internalized ^3H-NE only.
The background bond has been determined in parallel in a fourth well containing a 400 times molar excess of non-marked ^1H-NE (“cold”). For the competition study, the cells have been plated as above, and thus incubated for 1 hour with 50 nM ^3H-NE in binder medium in the absence and presence of the ^89Y-DOTA-BG chelate (compound of Formula II, 1a or MC4324) (non-radioactive analogue of the compound of Formula II, 1 or MC4324) and free binder 9 (MC4325) at different concentrations. The radioactivity has been determined separately in the wells in triple for each concentration value. The uptake of ^3H-NE has been expressed as total radioactivity percentage normalized for mg of protein.
The ability of the “cold” chelates of Formula III (10a′, MC4801) and IV (10b′, MC4803) to act as substrates of NET has been evaluated in competition experiments with the tritiated endogenous substrate ^3H-NE for the uptake by the human neuroblastoma cells SK-N-SH, which are known to express the transporter NET in large quantity. […] Therefore also in this case it is possible to prepare radio-marked versions of the chelates of Formula III (10a, MC4801) and IV (10b, MC4803) with low specific activity, as the absence of competition for NET between the chelates 10a,b (MC4801 and MC4803) and the respective free binders 13a,b (MC4802 and MC4804) doesn't compromise the bonding ability to NET of the chelates [compounds of Formula III (10a, MC4801) and IV (10b, MC4803)] also in the presence of an excess of free binders 13a,b (MC4802 and MC4804). […]

Data set [2] concerns human neuroblastoma line SK-N-SH. As to the kind of experiment: cytotoxic effects in SK-N-SH cells. The data set is classed as cell-based. To be noted: up to the maximum concentration tested (100 μM).
Data set [3] in a line: chemical stability in physiological conditions (PBS buffer, 37° C., analytical HPLC). It is filed as physicochemical. The note with it: for Area 1 (chromatographic peak of compound 1a) / Area (1 + 2) (peaks of compound 1a and impurity 2): PBS, 37° C. The method, then: The stability of the chelate ^89Y-DOTA-BG (1a, MC4324) (non-radioactive analogue of the compound of Formula II, 1 or MC4324) in physiological conditions has been evaluated by analysis with analytical HPLC (Shimadzu Nexera chromatograph equipped with a SPD-M20A PDA detector; Hypersil ODS GOLD 250×4.6 mm column; eluent: MeOH/H2O 5:95 v/v+0.02% TFA, flow: 1.0 ml/min; UV detection 214 nm) repeated at regular time intervals after having solubilized it in PBS buffer (c=0.9 mg/ml) and kept at T=37° C.
FIG. 2 depicts the HPLC plot relative to the compound ^89Y-DOTA-BG (1a) solubilized in PBS buffer (c=0.9 mg/ml) and at T=37° C. time t=0 min (A), t=21 hours (B) and t=5 days (C). […]

The nature of data set [4]: stability in human serum (release of ^90Y^3+ to serum proteins). The data set is classed as in vitro ADME. To be noted: 32 MBq per 16 ml, T=37° C., 14 days. The method, then: The stability in serum of the […] chelate of Formula II (1 or MC4324) has been evaluated by measuring the release of the metal cation ^90Y^3+ from the chelate to the serum proteins during 14 days in which it has been kept in physiological conditions. Briefly, the ^90Y-DOTA-BG chelate of Formula II (1 or MC4324) has been incubated with human serum (32 MBq for 16 ml of serum) at T=37° C. At regular time intervals serum aliquots have been collected and, by using centrifuge filter tubes (Amicon® Ultra-4 3K, Merck Millipore) and by centrifuging at 5500 g, the serum proteins have been separated from the non-protein fraction of serum and the radioactivity of both fractions has been measured with a liquid scintillation β counter (scintillation liquid used is Perkin Elmer ULTIMA GOLD).
The stability in serum of the chelates of Formula III (10a, MC4801) and IV (10b, MC4803) has been evaluated by measuring the release of the metal cation ^90Y^3+ from the chelates to the serum proteins during 14 days in which they have been kept in physiological conditions. Briefly, the chelates of Formula III (10a, MC4801) and IV (10b, MC4803) have been incubated with human serum (32 MBq per 16 ml of serum) at T=37° C. At regular time intervals serum aliquots have been collected and, by using centrifuge filter tubes (Amicon® Ultra-4 3K, Merck Millipore) and by centrifuging at 5500 g, the serum proteins have been separated from the non-protein fraction of serum and the radioactivity of both fractions has been measured with a liquid scintillation β counter (scintillation liquid used is Perkin Elmer ULTIMA GOLD).

pIC50: −log10 of the molar value.

Usually pIC50 stands for −log10 of the IC50, conventionally taken in molar units.

T1 sequence (P23975 whole entry): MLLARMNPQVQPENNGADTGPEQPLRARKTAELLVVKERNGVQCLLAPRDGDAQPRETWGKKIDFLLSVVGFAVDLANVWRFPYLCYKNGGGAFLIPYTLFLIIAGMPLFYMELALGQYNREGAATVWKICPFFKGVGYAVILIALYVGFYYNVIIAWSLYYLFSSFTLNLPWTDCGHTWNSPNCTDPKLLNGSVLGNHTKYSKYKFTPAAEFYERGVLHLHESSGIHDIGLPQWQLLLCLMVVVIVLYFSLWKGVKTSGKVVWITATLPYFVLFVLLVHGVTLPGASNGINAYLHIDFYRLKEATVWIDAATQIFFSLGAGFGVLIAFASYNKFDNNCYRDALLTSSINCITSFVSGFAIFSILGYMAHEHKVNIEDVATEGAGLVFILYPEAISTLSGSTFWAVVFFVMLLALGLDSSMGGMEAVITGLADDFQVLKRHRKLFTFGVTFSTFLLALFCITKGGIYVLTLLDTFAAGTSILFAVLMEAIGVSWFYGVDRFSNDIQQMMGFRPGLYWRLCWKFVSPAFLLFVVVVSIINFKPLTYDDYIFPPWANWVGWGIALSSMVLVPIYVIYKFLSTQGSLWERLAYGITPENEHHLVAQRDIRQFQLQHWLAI

Regarding `N=C(N)NCc1cccc(C(=O)NCCNC(=O)CN2CCN(CC(=O)O)CCN(CC(=O)O)CCN(CC(=O)O)CC2)c1` [compound 9, 2,2′,2″-(10-(2-((2-(3-(guanidinomethyl)benzamido)ethyl)amino)-2-oxoethyl)-1,4,7,10-tetraazacyclododecane-1,4,7-triyl) triacetic acid], the “inhibition of the uptake/internalization of ^3H-NE (competition with ^3H-NE)” value in data set [1] (50 nM ^3H-NE, 37° C.) is on record as “completely unable to compete”.

With `NC[C@H](O)c1ccc(O)c(O)c1` [^1H-NE, reference compound], the “competition of positive control with ^3H-NE for the internalization” value in data set [1] (non-marked ^1H-NE at 20 μM) is “compete with ^3H-NE for the internalization”.

Turning to `N=C(N)NCc1cccc(C(=O)NCCCNC(=O)CN2CCN(CC(=O)O)CCN(CC(=O)O)CCN(CC(=O)O)CC2)c1` [13a, 2,2′,2″-(10-(2-((3-(3-(guanidinomethyl)benzamido)propyl)amino)-2-oxoethyl)-1,4,7,10-tetraazacyclododecane-1,4,7-triyl) triacetic acid], the “inhibition of the uptake/internalization of ^3H-NE (competition with ^3H-NE)” value in data set [1] (50 nM ^3H-NE, 37° C.) is on record as “completely unable to compete”.

Regarding `N=C(N)NCc1cccc(C(=O)NCCNC(=O)CN2CCN(CC(=O)[O-])CCN(CC(=O)[O-])CCN(CC(=O)[O-])CC2)c1.[89Y+3]` [1a], in data set [1] (50 nM ^3H-NE, 1 hour incubation, 37° C., read-out: inhibition of the ^3H-NE uptake IC50), the negative logarithm of the IC50 (pIC50) is around 5.00. Moreover, the “inhibition of the uptake/internalization of ^3H-NE (competition with ^3H-NE)” value in data set [1] (50 nM ^3H-NE, 37° C.) was “dose-dependent inhibition”. Besides, the “substrate of NET compared with MIBG” value in data set [1] is “substrate of NET analogously to MIBG, even though with lower power”. For the same compound, the cytotoxic effects entry in data set [2] is “without dose-dependent cytotoxic effects”. Also, the “chemical purity after 5 days” value in data set [3] (PBS buffer c=0.9 mg/ml, T=37° C., HPLC UV 214 nm, 5 days) is listed as “higher than 99.5%”. For the same compound, the “Area 1 (chromatographic peak of compound 1a)” value in data set [3] (time 0 min) was 34.78; in data set [3] (time 30 min), 35.09; in data set [3] (time 1 hour 30 min), 35.07; in data set [3] (time 5 hours), 35.13; in data set [3] (time 21 hours), 37.15; in data set [3] (time 5 days), 38.34. Further, the “Area (1 + 2) (peaks of compound 1a and impurity 2)” value is 35.13 in data set [3] (time 0 min); 35.29 in data set [3] (time 30 min); 35.30 in data set [3] (time 1 hour 30 min); 35.40 in data set [3] (time 5 hours); 37.45 in data set [3] (time 21 hours); 38.65 in data set [3] (time 5 days).

Turning to `N=C(N)NCc1cccc(C(=O)NCCCNC(=O)CN2CCN(CC(=O)[O-])CCN(CC(=O)[O-])CCN(CC(=O)[O-])CC2)c1.[89Y+3]` [10a′], in data set [1] (50 nM ^3H-NE, 37° C.), the “inhibition of the uptake/internalization of ^3H-NE (competition with ^3H-NE)” value was “dose-dependent inhibition”. The “substrate of NET compared with MIBG” value was “substrate of NET analogously to MIBG, even though with lower power” in data set [1] and “substrates of NET analogously to MIBG” in data set [1] (listed as Formula III). Besides, the values for the cytotoxic effects entry in data set [2] and in data set [2] (listed as Formula III) were “without dose-dependent cytotoxic effects” and “without cytotoxic effects”, respectively.

For `N=C(N)NCc1cccc(C(=O)NCCCCNC(=O)CN2CCN(CC(=O)[O-])CCN(CC(=O)[O-])CCN(CC(=O)[O-])CC2)c1.[90Y+3]` [10b], the “loss of radioactivity (^90Y^3+) in favor of the protein fraction of serum” value (from here on “loss … of the protein fraction of serum”) in data set [4] is “no measurable loss of radioactivity”.

As for `N=C(N)NCc1cccc(C(=O)NCCNC(=O)CN2CCN(CC(=O)[O-])CCN(CC(=O)[O-])CCN(CC(=O)[O-])CC2)c1.[90Y+3]` [compound 1], the “loss … of the protein fraction of serum” value in data set [4] was “no measurable loss of radioactivity”.

For `N=C(N)NCc1cccc(I)c1` [MIBG, reference compound], the “competition of positive control with ^3H-NE for the internalization” value in data set [1] (non-marked MIBG at 2 μM) is recorded as “compete with ^3H-NE for the internalization”.

As for `CC(CCNC(=O)CN1CCN(CC(=O)O)CCN(CC(=O)O)CCN(CC(=O)O)CC1)NC(=O)c1cccc(CNC(=N)N)c1` (stereo not drawn) [13b, 2,2′,2″-(10-(2-((3-(3-(guanidinomethyl)benzamido)butyl)amino)-2-oxoethyl)-1,4,7,10-tetraazacyclododecane-1,4,7-triyl) Triacetic Acid], in data set [1] (50 nM ^3H-NE, 37° C.), the “inhibition of the uptake/internalization of ^3H-NE (competition with ^3H-NE)” value is on record as “completely unable to compete”.

`N=C(N)NCc1cccc(C(=O)NCCCNC(=O)CN2CCN(CC(=O)[O-])CCN(CC(=O)[O-])CCN(CC(=O)[O-])CC2)c1.[90Y+3]` [10a]: the “loss … of the protein fraction of serum” value in data set [4] is recorded as “no measurable loss of radioactivity”.
